Reference: article PMC10002517, “Inhibition of Transglutaminase 2 as a Therapeutic Strategy in Celiac Disease—In Vitro Studies in Intestinal Cells and Duodenal Biopsies” (International Journal of Molecular Sciences, 2023)

What was measured:
[1] = target: T1, human transglutaminase 2 (TG2) (Homo sapiens, UniProt P21980); experiment: TG2-mediated cross-linking (transamidation) of pepsin-/trypsin-digested gliadin (PTG) on immobilized TG2; type: biochemical; conditions: for TG2-mediated cross-linking of PTG: 10 nM TG2 coated, 10 µg/mL PTG, 1 h 37 °C, normalized to TG2 without inhibitor, mean ± SD, n = 4
T1 construct: purchased Zedira, Darmstadt, Germany T034
T1 sequence (P21980 1-687): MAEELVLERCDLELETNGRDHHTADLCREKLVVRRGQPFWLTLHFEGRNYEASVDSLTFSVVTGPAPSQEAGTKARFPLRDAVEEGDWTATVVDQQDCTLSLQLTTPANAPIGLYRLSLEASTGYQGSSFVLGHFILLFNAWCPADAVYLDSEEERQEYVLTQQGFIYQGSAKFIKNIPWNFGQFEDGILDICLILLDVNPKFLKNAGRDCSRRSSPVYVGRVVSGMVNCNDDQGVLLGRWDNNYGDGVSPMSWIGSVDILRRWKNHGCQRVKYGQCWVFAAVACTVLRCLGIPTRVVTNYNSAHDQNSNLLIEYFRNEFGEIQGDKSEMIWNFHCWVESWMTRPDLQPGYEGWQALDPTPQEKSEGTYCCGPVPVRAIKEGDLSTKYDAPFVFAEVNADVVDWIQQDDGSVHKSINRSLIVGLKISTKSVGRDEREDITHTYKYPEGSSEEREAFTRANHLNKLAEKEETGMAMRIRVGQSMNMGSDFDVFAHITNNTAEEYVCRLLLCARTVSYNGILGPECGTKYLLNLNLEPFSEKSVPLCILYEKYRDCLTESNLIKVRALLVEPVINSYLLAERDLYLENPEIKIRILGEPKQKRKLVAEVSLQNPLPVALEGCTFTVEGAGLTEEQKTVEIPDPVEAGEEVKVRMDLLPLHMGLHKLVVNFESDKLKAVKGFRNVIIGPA
Experimental: A tissue-culture-treated 96-well plate (83.3924, Sarstedt, Nümbrecht, Germany) was coated for 1 h at 37°C with 10 nM TG2 (T034, Zedira, Darmstadt, Germany) in 50 mM Tris, 1 mM EDTA, 5 mM CaCl2 (pH 7.5) buffer containing 10 mM DTT. After three washes with PBS, the plate was blocked with 2% bovine serum albumin (BSA, Carl Roth GmbH, Karlsruhe, Germany) in PBS for 30 min at room temperature. Then, incubation with 10 µg/mL of pepsin-/trypsin-digested gliadin (PTG, T004, Zedira) ± inhibitors was performed for 1 h at 37 °C. After three washes with PBS, the primary antibody directed against gliadin (1:1000, clone XGY4, Zedira) was applied in BSA 2% at 4 °C overnight on an orbital shaker. The next day, the secondary antibody directed against mouse IgG (1:1000; sc-516102, Santa Cruz Biotechnology, Dallas, TX, USA) was incubated in BSA 2% for 1 h at room temperature on an orbital shaker. After three washes with phosphate buffered saline (PBS), the HRP-substrate TMB (tetramethylbenzidine, Sigma-Aldrich, Darmstadt, Germany) was added (100 µL per well). Photometric quantitation at 655 nm was performed after 15 min using a Clariostar Plus (BMG Labtech, Ortenberg, Germany) microplate reader.

[2] = target: T2, TG2 in the intestinal lamina propria (Homo sapiens, UniProt P21980); experiment: TG2 activity in cryosections of duodenal biopsies from CD patients (5BP, confocal microscopy); type: biochemical; conditions: 1 h before 5BP, mean ± SD, n = 6 patients
T2 construct: from tissue; host or cells: duodenal biopsies from celiac disease patients (unfixed 400 nm cryosections, lamina propria)
T2 sequence (P21980 1-687): T1 sequence (P21980 1-687)
Experimental: For immunofluorescence microscopic investigation of transglutaminase activity, only biopsies with minor macroscopic inflammatory signs were used. After endoscopy, biopsies were immediately washed three times in PBS and cryopreserved in polyvinylpyrrolidone sucrose at 4 °C overnight. Biopsies were mounted on specimen holders using Tissue-Tek O.C.T (Sakura Finetek, Staufen im Breisgau, Germany) compound and frozen in liquid nitrogen. For evaluation of transglutaminase activity by the post-embedding procedure, 400 nm cryosections were obtained using a cryo-ultramicrotome (Leica EM UC6, Leica, Wetzlar, Germany) and mounted on class cover slides. After three brief washes with PBS, tissue sections were incubated with the indicated concentrations of the inhibitors for 1 h in tris buffer. Then, the TG2 substrate 5BP was incubated for 1 h at 37 °C in tris buffer containing DTT at the indicated concentration. Slides were washed three times in PBS, fixed in 4% paraformaldehyde (10 min), permeabilized with 0.5% Triton (10 min) and incubated with blocking solution (0.1% cold water fish skin gelatin + 5% BSA + 5% goat serum, 10 min). Afterwards, a rabbit polyclonal antibody directed against human TG2 (Kan5, kindly provided by Dr T. Mothes, Institute of Laboratory Medicine, University Hospital Leipzig, Germany) was applied at 1:200 dilution in blocking solution overnight at 4 °C. After three washing steps (each 5 min) with PBS, Alexa Fluor-555-conjugated secondary antibody (goat-anti-rabbit, 1:200, Thermo Fisher Scientific) and Alexa Fluor-488-conjugated streptavidin (2 µg/mL, Thermo Fisher Scientific) were incubated at room temperature in the dark for 1 h. After three washes with PBS, samples were covered in ProLong Gold antifade mountant (Thermo Fisher Scientific) and sealed with clear nail polish. Sealed slides were stored in the dark at 4 °C until microscopy.
Imaging was done using a confocal laser scanning microscope (TE2000-E, Nikon, Langen, Germany) and a 60× Plan Apo (NA 1.41) immersion oil objective. The detailed acquisition settings and the corresponding macro (Image J [46]) for image processing can be accessed in the Supplementary Materials methods (S1). Five images per patient where quantified. For quantitation, mean fluorescence intensity of TG2 activity (488 nm channel) was normalized to TG2 expression (555 nm channel) within the intestinal lamina propria.

[3] = tested on: uptake of P56-88 by Caco-2 cells; experiment: Epithelial uptake of P56-88 by Caco-2 cells (confocal microscopy); type: cell-based, human; conditions: confocal microscopy
Experimental: For microscopic evaluation, Caco-2 cells were seeded on polymer-covered µ-slides (80826, Ibidi) and incubated for 1 h with labeled gliadin peptides in the presence of TG2 inhibitors. After three washes with PBS, cells were fixed with 4% paraformaldehyde. Nuclear staining was performed for 10 min using Hoechst fluorescent stain (1:1000 in PBS). Imaging was done using a confocal laser scanning microscope (TE2000-E, Nikon) and a 60× Plan Apo (NA 1.41) immersion oil objective. Processing of z-stacks, including 3D reconstruction, was performed using ImageJ [46]. For quantitation, z-stack images were taken with the same microscope settings. Using ImageJ, maximum intensity projections were obtained of the z-stack images, and the fluorescence intensity was measured within the whole image.

[4] = 100 µM inhibitor, untreated 0.94 ± 0.26 (ERW1041) or 0.91 ± 0.28 (PX-12)
[5] = 1 h incubation with peptide and inhibitor, n = 3

TG2-mediated cross-linking of PTG ([1]; 10 µM inhibitor) [%] | TG2-mediated cross-linking of PTG ([1]; 100 µM inhibitor) [%] | reduction of enzymatic modification of gliadin ([1]; at 10 µM and 100 µM) | TG2 activity normalized against TG2 expression in the lamina propria [2, 4] | TG2 activity normalized against TG2 expression in the lamina propria ([2]; 1 µM inhibitor, untreated 0.94 ± 0.26) | uptake of P56-88 by Caco-2 cells ([3]; 100 µM inhibitor, 1 h) | Compound | uptake of P56-88 by Caco-2 cells [3, 5]
15 ± 3 | 5 ± 1 | more than 80% | 0.44 ± 0.21 |  |  | CCC(C)SSc1ncc[nH]1 (centres unmarked) [PX-12, 2-[(1-methylpropyl)dithio]-1H-imidazole] | did not affect the uptake of P56-88
48 ± 8 | 11 ± 2 |  | 0.31 ± 0.17 | 0.58 ± 0.27 | nearly absent | O=C(NC[C@@H]1CC(Br)=NO1)[C@@H]1CCCN1C(=O)OCc1cnc2ccccc2c1 [ERW1041] | reduced the uptake of P56-88 in a dose-dependent manner
